Measured values taken from ChEMBL document CHEMBL3885861, “Open TG-GATES”.

Organism: Rattus norvegicus
Assay: Open TG-GATES - Regimen: Daily Repeat
Assay type: toxicity, organism-based, Sprague-Dawley
Set-up: regimen Daily Repeat, gender Male, age 6 weeks
Conditions: in vivo, po, 1000 mg/kg, route gavage, dose level High; for APTT / Bas / Eos / Fbg / Hb / Ht / Lym / MCH / MCHC / MCV / Mono / Neu / PT / Plat / RBC / Ret / WBC: tissue Blood; for KIDNEY_L / KIDNEY_R / KIDNEY_TOTAL: tissue Kidney; for LIVER: tissue Liver; for A/G / ALP / ALT / AST / BUN / CRE / Ca / Cl / DBIL / GLC / IP / K / LDH / Na / PL / RALB / TBIL / TC / TG / TP / gamma-GTP: tissue Plasma

## COC1=CC(=O)C[C@@H](C)[C@]12Oc1c(Cl)c(OC)cc(OC)c1C2=O [GRISEOFULVIN]
72 h, time 3 day
  TERMINAL_BW: 225 g
  APTT: 21.1 s
  Bas: 0%
  Eos: 1%
  Fbg: 220.8 mg/dL
  Hb: 13.5 g/dL
  Ht: 39.9%
  Lym: 79.2%
  MCH: 21.2 pg
  MCHC: 33.8%
  MCV: 62.6 fL
  Mono: 2.4%
  Neu: 17%
  PT: 12.5 s
  Plat: 122 x10_4/uL
  RBC: 637.2 x10_4/ul
  Ret: 6.9%
  WBC: 108.3 x10_2/uL
  KIDNEY_L: 1 g
  KIDNEY_R: 1 g
  KIDNEY_TOTAL: 2 g
  LIVER: 11.5 g
  A/G: 1.6
  ALP: 1064.4 IU/L
  ALT: 40.6 IU/L
  AST: 63.8 IU/L
  BUN: 13.8 mg/dL
  CRE: 0.4 mg/dL
  Ca: 10.8 mg/dL
  Cl: 103.6 meq/L
  DBIL: 0.074 mg/dL
  GLC: 213.4 mg/dL
  IP: 7.8 mg/dL
  K: 3.8 meq/L
  LDH: 184.2 IU/L
  Na: 140.2 meq/L
  PL: 125.8 mg/dL
  RALB: 3.4 g/dL
  TBIL: 0.1 mg/dL
  TC: 72.6 mg/dL
  TG: 45 mg/dL
  TP: 5.6 g/dL
  gamma-GTP: 1.4 IU/L
[…], time 7 day
  TERMINAL_BW: 266.7 g
  APTT: 21 s
  Bas: 0%
  Eos: 0.8%
  Fbg: 231.6 mg/dL
  Hb: 13.3 g/dL
  Ht: 38.9%
  Lym: 79.2%
  MCH: 21.5 pg
  MCHC: 34.2%
  MCV: 62.9 fL
  Mono: 3%
  Neu: 16.2%
  PT: 12.4 s
  Plat: 145.2 x10_4/uL
  RBC: 618 x10_4/ul
  Ret: 6.6%
  WBC: 110.8 x10_2/uL
  KIDNEY_L: 1.1 g
  KIDNEY_R: 1.1 g
  KIDNEY_TOTAL: 2.3 g
  LIVER: 13.5 g
  A/G: 1.3
  ALP: 845.8 IU/L
  ALT: 31.6 IU/L
  AST: 56.8 IU/L
  BUN: 15.2 mg/dL
  CRE: 0.4 mg/dL
  Ca: 10.8 mg/dL
  Cl: 103.8 meq/L
  DBIL: 0.064 mg/dL
  GLC: 207 mg/dL
  IP: 7.3 mg/dL
  K: 3.8 meq/L
  LDH: 150.2 IU/L
  Na: 142 meq/L
  PL: 126.8 mg/dL
  RALB: 3.4 g/dL
  TBIL: 0.1 mg/dL
  TC: 76.4 mg/dL
  TG: 45.4 mg/dL
  TP: 5.9 g/dL
  gamma-GTP: 1.2 IU/L
[…], time 14 day
  TERMINAL_BW: 318.3 g
  APTT: 20.2 s
  Bas: 0%
  Eos: 1%
  Fbg: 229.6 mg/dL
  Hb: 14.2 g/dL
  Ht: 42.1%
  Lym: 79.8%
  MCH: 21 pg
  MCHC: 33.8%
  MCV: 62 fL
  Mono: 3%
  Neu: 15.2%
  PT: 12.6 s
  Plat: 114.7 x10_4/uL
  RBC: 678.4 x10_4/ul
  Ret: 2.8%
  WBC: 112.6 x10_2/uL
  KIDNEY_L: 1.3 g
  KIDNEY_R: 1.3 g
  KIDNEY_TOTAL: 2.6 g
  LIVER: 14.6 g
  A/G: 1.4
  ALP: 803.4 IU/L
  ALT: 32 IU/L
  AST: 56 IU/L
  BUN: 14.6 mg/dL
  CRE: 0.5 mg/dL
  Ca: 10.8 mg/dL
  Cl: 103 meq/L
  DBIL: 0.076 mg/dL
  GLC: 205.2 mg/dL
  IP: 7.4 mg/dL
  K: 4.2 meq/L
  LDH: 135.6 IU/L
  Na: 140.6 meq/L
  PL: 138.6 mg/dL
  RALB: 3.4 g/dL
  TBIL: 0.1 mg/dL
  TC: 81.4 mg/dL
  TG: 55.4 mg/dL
  TP: 5.9 g/dL
  gamma-GTP: 1 IU/L
[…], time 28 day
  TERMINAL_BW: 423.7 g
  APTT: 24.8 s
  Bas: 0%
  Eos: 1%
  Fbg: 230.8 mg/dL
  Hb: 14.6 g/dL
  Ht: 43.2%
  Lym: 84.4%
  MCH: 20.4 pg
  MCHC: 33.9%
  MCV: 60.1 fL
  Mono: 2.4%
  Neu: 11.4%
  PT: 13 s
  Plat: 113.5 x10_4/uL
  RBC: 718.4 x10_4/ul
  Ret: 3.3%
  WBC: 158.4 x10_2/uL
  KIDNEY_L: 1.6 g
  KIDNEY_R: 1.5 g
  KIDNEY_TOTAL: 3.1 g
  LIVER: 19.4 g
  A/G: 1.3
  ALP: 500.8 IU/L
  ALT: 39.2 IU/L
  AST: 55 IU/L
  BUN: 14.8 mg/dL
  CRE: 0.5 mg/dL
  Ca: 10.5 mg/dL
  Cl: 103 meq/L
  DBIL: 0.062 mg/dL
  GLC: 234.6 mg/dL
  IP: 7.3 mg/dL
  K: 3.7 meq/L
  LDH: 159 IU/L
  Na: 140.6 meq/L
  PL: 138 mg/dL
  RALB: 3.4 g/dL
  TBIL: 0.1 mg/dL
  TC: 88.6 mg/dL
  TG: 38 mg/dL
  TP: 6.2 g/dL
  gamma-GTP: 0.8 IU/L
